Measurements published in patent US9708325B2, “Sulfonimidoylpurinone compounds and derivatives for the treatment and prophylaxis of virus infection” (Hoffmann-La Roche Inc., priority 2015, dated 2017).
≈ marks a conversion by molar mass, not a printed value. Like-named read-outs stand apart in the source and are kept apart here.

Key:
human TLR7 = human TLR7 (Homo sapiens (Human), UniProt Q9NYK1); test: HEK-Blue-hTLR7 cells assay (SEAP reporter); format: cell-based; settings: 20 hrs
Method: A stable HEK-Blue-hTLR7 cell line was purchased from InvivoGen (Cat.#: hkb-htlr7, San Diego, Calif., USA). These cells were designed for studying the stimulation of human TLR7 by monitoring the activation of NF-κB. […] Therefore the reporter expression was regulated by the NF-κB promoter upon stimulation of human TLR7 for 20 hrs. The cell culture supernatant SEAP reporter activity was determined using QUANTI-Blue™ kit (Cat.#: rep-qb1, Invivogen, San Diego, Ca, USA) at a wavelength of 640 nm, a detection medium that turns purple or blue in the presence of alkaline phosphatase.
HEK-Blue-hTLR7 cells were incubated at a density of 250,000˜450,000 cells/mL in a volume of 180 μL in a 96-well plate in Dulbecco's Modified Eagle's medium (DMEM) containing 4.5 g/L glucose, 50 U/mL penicillin, […], […], 2 mM L-glutamine, 10% (V/V) heat-inactivated fetal bovine serum for 24 hrs. Then the HEK-Blue-hTLR-7 cells were incubated with addition of 20 μL test compound in a serial dilution in the presence of final DMSO at 1% and perform incubation under 37° C. in a CO2 incubator for 20 hrs. Then 20 μL of the supernatant from each well was incubated with 180 μL Quanti-blue substrate solution at 37° C. for 2 hrs and the absorbance was read at 620˜655 nm using a spectrophotometer. The signalling pathway that TLR7 activation leads to downstream NF-κB activation has been widely accepted, and therefore similar reporter assay was also widely used for evaluating TLR7 agonist (Tsuneyasu Kaisho and Takashi Tanaka, Trends in Immunology, Volume 29, Issue 7, July 2008, […]; Hiroaki Hemmi et al, Nature Immunology 3, 196-200 (2002)).

LYSA solubility = format: physicochemical; settings: 0.05 M phosphate buffer, pH 6.5, aqueous buffer, thermodynamic from solid
Method: LYSA solubility assay is used to determine the aqueous solubility of a compound. Samples were prepared in duplicate from 10 mM DMSO stock solution. […] After one night, the solutions were filtered using a microtiter filter plate. Then the filtrate and its 1/10 dilution were analyzed by HPLC-UV.

[1] = read-out: HEK-Blue-hTLR7 (EC50 (μM))

Chain of human TLR7 (Q9NYK1 27-1049): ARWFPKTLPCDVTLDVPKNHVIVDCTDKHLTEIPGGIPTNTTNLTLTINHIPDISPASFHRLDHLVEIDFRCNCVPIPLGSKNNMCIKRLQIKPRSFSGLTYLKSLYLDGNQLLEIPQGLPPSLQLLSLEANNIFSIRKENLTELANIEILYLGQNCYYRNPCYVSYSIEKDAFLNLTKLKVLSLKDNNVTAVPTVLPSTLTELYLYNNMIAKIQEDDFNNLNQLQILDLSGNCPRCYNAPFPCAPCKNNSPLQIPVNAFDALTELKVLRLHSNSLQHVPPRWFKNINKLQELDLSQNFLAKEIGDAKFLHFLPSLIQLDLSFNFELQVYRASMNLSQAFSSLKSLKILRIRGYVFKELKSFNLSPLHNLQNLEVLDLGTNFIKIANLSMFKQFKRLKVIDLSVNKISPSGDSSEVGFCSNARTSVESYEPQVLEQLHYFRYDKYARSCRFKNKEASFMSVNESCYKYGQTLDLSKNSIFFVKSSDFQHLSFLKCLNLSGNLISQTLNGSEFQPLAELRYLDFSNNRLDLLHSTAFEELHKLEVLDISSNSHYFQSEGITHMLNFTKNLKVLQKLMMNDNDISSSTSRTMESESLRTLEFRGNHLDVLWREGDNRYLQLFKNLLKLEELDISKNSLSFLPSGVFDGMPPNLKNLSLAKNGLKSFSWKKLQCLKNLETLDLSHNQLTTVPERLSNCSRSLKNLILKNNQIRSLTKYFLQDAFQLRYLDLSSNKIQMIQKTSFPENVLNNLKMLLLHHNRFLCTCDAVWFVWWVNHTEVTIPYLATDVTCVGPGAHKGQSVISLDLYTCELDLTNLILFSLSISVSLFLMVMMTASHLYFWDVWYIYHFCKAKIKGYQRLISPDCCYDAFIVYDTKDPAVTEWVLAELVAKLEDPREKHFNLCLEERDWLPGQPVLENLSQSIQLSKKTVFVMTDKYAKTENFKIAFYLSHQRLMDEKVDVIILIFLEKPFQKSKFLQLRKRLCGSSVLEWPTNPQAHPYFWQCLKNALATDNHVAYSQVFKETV

SMILES	EC50 (human TLR7; HEK-Blue-hTLR7 (EC50 (μM))) [µM]	EC50 (human TLR7; [1]) [µM]	solubility thermodynamic (LYSA solubility) [µg/mL]
COCCS(=N)(=O)c1nc(N)c2[nH]c(=O)n(Cc3ccccc3)c2n1 (single isomer, unassigned) [Example 3-B, 6-Amino-9-benzyl-2-(2-methoxyethylsulfonimidoyl)-7H-purin-8-one]	0.55		
CCCS(=N)(=O)c1nc(N)c2[nH]c(=O)n(Cc3ccc(Cl)cc3)c2n1 (single isomer, unassigned) [Example 9-A, 6-Amino-9-[(4-chlorophenyl)methyl]-2-(propylsulfonimidoyl)-7H-purin-8-one]	0.014		
CCCS(=N)(=O)c1nc(N)c2[nH]c(=O)n(Cc3ccc(Cl)cc3)c2n1 (single isomer, unassigned) [Example 9-B, 6-Amino-9-[(4-chlorophenyl)methyl]-2-(propylsulfonimidoyl)-7H-purin-8-one]	0.011		
CS(=N)(=O)c1nc(N)c2[nH]c(=O)n(Cc3cccnc3)c2n1 (single isomer, unassigned) [Example 16-A, 6-Amino-2-(methylsulfonimidoyl)-9-(3-pyridylmethyl)-7H-purin-8-one]	0.76		
CS(=N)(=O)c1nc(N)c2[nH]c(=O)n(Cc3cccnc3)c2n1 (single isomer, unassigned) [Example 16-B, 6-Amino-2-(methylsulfonimidoyl)-9-(3-pyridylmethyl)-7H-purin-8-one]	0.15		
COCCCS(=N)(=O)c1nc(N)c2[nH]c(=O)n(Cc3ccccc3)c2n1 (centres unmarked) [Example 6, 6-Amino-9-benzyl-2-(3-methoxypropylsulfonimidoyl)-7H-purin-8-one]		0.43	89 (≈ 236 µM)
N=S(=O)(CC(F)(F)F)c1nc(N)c2[nH]c(=O)n(Cc3ccccc3)c2n1 (centres unmarked) [Example 7, 6-Amino-9-benzyl-2-(2,2,2-trifluoroethylsulfonimidoyl)-7H-purin-8-one]		0.18	18 (≈ 46.6 µM)
COc1ccc(Cn2c(=O)[nH]c3c(N)nc(S(C)(=N)=O)nc32)cc1 (centres unmarked) [Example 10, 6-Amino-9-[(4-methoxyphenyl)methyl]-2-(methylsulfonimidoyl)-7H-purin-8-one]		0.074	
COc1ccc(Cn2c(=O)[nH]c3c(N)nc(S(=N)(=O)CCCCl)nc32)cc1 (centres unmarked) [Example 11, 6-Amino-2-(3-chloropropylsulfonimidoyl)-9-[(4-methoxyphenyl)methyl]-7H-purin-8-one]		0.066	18 (≈ 43.8 µM)
CCCS(=N)(=O)c1nc(N)c2[nH]c(=O)n(Cc3ccccc3Cl)c2n1 (centres unmarked) [Example 15, 6-Amino-9-[(2-chlorophenyl)methyl]-2-(propylsulfonimidoyl)-7H-purin-8-one]		0.19	
CCCS(=N)(=O)c1nc(N)c2[nH]c(=O)n(Cc3cccc(C#N)c3)c2n1 (centres unmarked) [Example 17, 3-[[6-Amino-8-oxo-2-(propylsulfonimidoyl)-7H-purin-9-yl]methyl]benzonitrile]	0.068		
CCCS(=N)(=O)c1nc(N)c2[nH]c(=O)n(Cc3cccc(C(N)=O)c3)c2n1 (centres unmarked) [Example 18, 3-[[6-amino-8-oxo-2-(propylsulfonimidoyl)-7H-purin-9-yl]methyl]benzamide]		0.047	166 (≈ 426 µM)
CS(=N)(=O)c1nc(N)c2[nH]c(=O)n(Cc3ccccn3)c2n1 (centres unmarked) [Example 19, 6-Amino-2-(methylsulfonimidoyl)-9-(2-pyridylmethyl)-7H-purin-8-one]		0.67	> 428
CCCS(=N)(=O)c1nc(N)c2[nH]c(=O)n(CC(C)C)c2n1 (centres unmarked) [Example 21, 6-Amino-9-isobutyl-2-(propylsulfonimidoyl)-7H-purin-8-one]			121 (≈ 387 µM)
CCCS(=N)(=O)c1nc(N)c2[nH]c(=O)n(Cc3cccc(Cl)c3)c2n1 (centres unmarked) [Example 22, 6-Amino-9-[(3-chlorophenyl)methyl]-2-(propylsulfonimidoyl)-7H-purin-8-one]		0.042	
CCCS(=N)(=O)c1nc(N)c2[nH]c(=O)n(Cc3ccc(C(F)(F)F)cc3)c2n1 (centres unmarked) [Example 23, 6-Amino-2-(propylsulfonimidoyl)-9-[[4-(trifluoromethyl)phenyl]methyl]-7H-purin-8-one]		0.016	
CCCS(=N)(=O)c1nc(N)c2[nH]c(=O)n(Cc3ccc(Br)cc3)c2n1 (centres unmarked) [Example 25, 6-Amino-9-[(4-bromophenyl)methyl]-2-(propylsulfonimidoyl)-7H-purin-8-one]		0.0096	
CCCS(=N)(=O)c1nc(N)c2[nH]c(=O)n(Cc3ccc(Cl)c(Cl)c3)c2n1 (centres unmarked) [Example 26, 6-Amino-9-[(3,4-dichlorophenyl)methyl]-2-(propylsulfonimidoyl)-7H-purin-8-one]		0.021	
CCCS(=N)(=O)c1nc(N)c2[nH]c(=O)n(Cc3ccc(Cl)c(C)c3)c2n1 (centres unmarked) [Example 28, 6-Amino-9-[(4-chloro-3-methyl-phenyl)methyl]-2-(propylsulfonimidoyl)-7H-purin-8-one]		0.021	
CCCS(=N)(=O)c1nc(N)c2[nH]c(=O)n(Cc3ccc(C)cc3)c2n1 (centres unmarked) [Example 29, 6-Amino-2-(propylsulfonimidoyl)-9-(p-tolylmethyl)-7H-purin-8-one]		0.027	
CCCS(=N)(=O)c1nc(N)c2[nH]c(=O)n(Cc3ccc(Cl)c(F)c3)c2n1 (centres unmarked) [Example 30, 6-Amino-9-[(4-chloro-3-fluorophenyl)methyl]-2-(propylsulfonimidoyl)-7H-purin-8-one]		0.018	
CCCS(=N)(=O)c1nc(N)c2[nH]c(=O)n(Cc3ccc(C)c(Cl)c3)c2n1 (centres unmarked) [Example 36, 6-Amino-9-[(3-chloro-4-methyl-phenyl)methyl]-2-(propylsulfonimidoyl)-7H-purin-8-one]		0.022	
CCCS(=N)(=O)c1nc(N)c2[nH]c(=O)n(Cc3ccc(C(=O)OC)cc3)c2n1 (centres unmarked) [Example 38, Methyl 4-[[6-amino-8-oxo-2-(propylsulfonimidoyl)-7H-purin-9-yl]methyl]benzoate]		0.075	
CCCS(=N)(=O)c1nc(N)c2[nH]c(=O)n(Cc3ccc(C(=O)N4CCCCC4)cc3)c2n1 (centres unmarked) [Example 41, 6-Amino-9-[[4-(piperidine-1-carbonyl)phenyl]methyl]-2-(propylsulfonimidoyl)-7H-purin-8-one]		0.084	
CCCS(=N)(=O)c1nc(N)c2[nH]c(=O)n(Cc3ccc(C(=O)N4CCCC4)cc3)c2n1 (centres unmarked) [Example 42, 6-Amino-2-(propylsulfonimidoyl)-9-[[4-(pyrrolidine-1-carbonyl)phenyl]methyl]-7H-purin-8-one]		0.09	
CCS(=N)(=O)c1nc(N)c2[nH]c(=O)n(Cc3ccc(C)cc3)c2n1 (centres unmarked) [Example 71, 6-Amino-2-(ethylsulfonimidoyl)-9-(p-tolylmethyl)-7H-purin-8-one]		0.098	12 (≈ 34.6 µM)
